Among the test systems are SF-268 CNS; DU-145 prostate; A498 renal; ACHN renal; UACC-62 melanoma; PC-3 prostate; MCF7 breast; SW-620 colon; NCI-H522 lung; HOP-62 NSCLC.
Common to all, as to experiment: inhibition of tumour cell growth, NCI panel, 48 h

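All cell lines were grown in 96-well plates and treated with compound for 48 hours. At the GI50, growth is halved. TGI: total growth inhibition.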

Consider 7 compounds from PubChem BioAssay (NCI).

Regarding `Cc1ccc(-n2c(-c3ccc(Cl)cc3)cs/c2=N\NC(=O)COc2n[nH]c(=O)c3ccccc23)cc1`, the GI50 in the experiment with SF-268 CNS was 32.9 µM; in the experiment on DU-145 prostate, over 100 µM; with A498 renal, over 100 µM; with ACHN renal, over 100 µM; in the experiment with UACC-62 melanoma, 23.4 µM; with PC-3 prostate, over 100 µM. The GI50 with MCF7 breast is 70.7 µM; with SW-620 colon, over 100 µM; in the experiment on NCI-H522 lung, over 100 µM; with HOP-62 NSCLC, 51.8 µM. Further, the TGI with SF-268 CNS, with DU-145 prostate, in the experiment on A498 renal, in the experiment with ACHN renal, in the experiment on UACC-62 melanoma and in the experiment with PC-3 prostate was over 100 µM throughout. Moreover, the TGI in the experiment with MCF7 breast, in the experiment on SW-620 colon, in the experiment with NCI-H522 lung and with HOP-62 NSCLC was over 100 µM each time.

Take `CC(=O)OC1=C2C(CC3C4CC=C5CC(OC(C)=O)CCC5(C)C4CCC23C)C2C(=O)N(Cc3ccccc3)C(=O)C2C1` (stereo not given): the GI50 was 19.8 µM in the experiment with SF-268 CNS; 32.8 µM in the experiment with DU-145 prostate; 10.9 µM in the experiment with A498 renal; 9.65 µM with ACHN renal; 4.42 µM in the experiment with UACC-62 melanoma; 4.03 µM with PC-3 prostate. Also, the GI50 in the experiment with MCF7 breast is 2.71 µM; in the experiment with SW-620 colon it was 12.2 µM; with NCI-H522 lung, 7.29 µM; in the experiment on HOP-62 NSCLC it was 35.9 µM. The TGI in the experiment with SF-268 CNS is over 100 µM; in the experiment with DU-145 prostate it was over 100 µM; with A498 renal, 43.6 µM; in the experiment on ACHN renal, over 100 µM; in the experiment with UACC-62 melanoma it was 34.3 µM; with PC-3 prostate, over 100 µM. In addition, the TGI with MCF7 breast was 15 µM; in the experiment on SW-620 colon it was over 100 µM; with NCI-H522 lung, 58.7 µM; in the experiment on HOP-62 NSCLC it was over 100 µM.

In the case of `c1ccc2c(c1)ccc1c3ccccc3ccc21`, the GI50 in the experiment on SF-268 CNS, in the experiment on DU-145 prostate, in the experiment on A498 renal, in the experiment with ACHN renal, in the experiment with UACC-62 melanoma and in the experiment on PC-3 prostate was over 50 µM each time. Further, the GI50 in the experiment with MCF7 breast, in the experiment on SW-620 colon, in the experiment on NCI-H522 lung and in the experiment on HOP-62 NSCLC was over 50 µM throughout. In addition, the TGI in the experiment with SF-268 CNS, in the experiment with DU-145 prostate, in the experiment with A498 renal, in the experiment on ACHN renal, in the experiment on UACC-62 melanoma and with PC-3 prostate was over 50 µM each time. Besides, the TGI with MCF7 breast, with SW-620 colon, in the experiment on NCI-H522 lung and in the experiment on HOP-62 NSCLC was over 50 µM throughout.

For `Oc1ccc(SCc2ccc(NCc3ccccc3)cc2)cc1`, the TGI with SF-268 CNS is over 100 µM; with DU-145 prostate, over 100 µM; in the experiment with A498 renal, 88 µM; in the experiment on ACHN renal it was over 100 µM; with UACC-62 melanoma, 76.4 µM; in the experiment with PC-3 prostate it was 71.9 µM. Further, the TGI in the experiment with MCF7 breast is over 100 µM; in the experiment with SW-620 colon it was over 100 µM; in the experiment on NCI-H522 lung, 98.2 µM; with HOP-62 NSCLC it was over 100 µM.

Take `COc1ccc(-c2nn(-c3cccc(NC(=O)Nc4cccc(C(F)(F)F)c4)c3)cc2-c2ccncc2)cc1Cl`: the GI50 was 3.22 µM in the experiment with SF-268 CNS; 3.56 µM in the experiment with DU-145 prostate; 1.61 µM in the experiment with A498 renal; 1.88 µM in the experiment on ACHN renal; 2.02 µM in the experiment with UACC-62 melanoma; 0.986 µM in the experiment with PC-3 prostate. Further, the GI50 in the experiment with MCF7 breast is 1.91 µM; with SW-620 colon, 3.37 µM; in the experiment on NCI-H522 lung it was 1.6 µM; in the experiment on HOP-62 NSCLC it was 2.81 µM. The TGI is over 100 µM in the experiment with SF-268 CNS; over 100 µM in the experiment with DU-145 prostate; 5.81 µM with A498 renal; over 100 µM with ACHN renal; 5.59 µM in the experiment with UACC-62 melanoma; 8.54 µM in the experiment with PC-3 prostate. Further, the TGI was over 100 µM in the experiment with MCF7 breast, over 100 µM with SW-620 colon, 6.07 µM in the experiment on NCI-H522 lung and 10.9 µM with HOP-62 NSCLC.

With `Oc1ccc(-c2nc3ccc4[nH]ncc4c3c3c2CCCC3)c2cccnc12`, the GI50 is 0.239 µM in the experiment on SF-268 CNS; 0.5 µM in the experiment on DU-145 prostate; 0.779 µM in the experiment on A498 renal; 0.181 µM in the experiment with ACHN renal; 0.512 µM in the experiment on UACC-62 melanoma; 0.389 µM with PC-3 prostate. Besides, the GI50 was 0.179 µM in the experiment with MCF7 breast, 0.123 µM in the experiment with SW-620 colon, 0.119 µM with NCI-H522 lung and 0.16 µM in the experiment with HOP-62 NSCLC. Also, the TGI in the experiment with SF-268 CNS worked out at 5.24 µM; in the experiment on DU-145 prostate, 8.13 µM; in the experiment with A498 renal it was 2.19 µM; with ACHN renal, 3.07 µM; in the experiment on UACC-62 melanoma, 1.97 µM; in the experiment with PC-3 prostate it was 6.56 µM. Also, the TGI was found to be 2.89 µM in the experiment on MCF7 breast, 11.1 µM in the experiment with SW-620 colon, 5.2 µM with NCI-H522 lung and 1.71 µM with HOP-62 NSCLC.

As for `C=C1C(=O)O[C@H]2[C@H]1CC(=O)/C(C)=C\CC[C@@]1(C)O[C@@H]21`, the GI50 with SF-268 CNS is 4.15 µg/mL; with DU-145 prostate it was 3.44 µg/mL; with A498 renal it was 5.55 µg/mL; with ACHN renal it was 0.822 µg/mL; with UACC-62 melanoma it was 2.75 µg/mL; with PC-3 prostate it was 4.53 µg/mL. Also, the GI50 in the experiment on MCF7 breast was 1.77 µg/mL; in the experiment with SW-620 colon it was 1.06 µg/mL; in the experiment on NCI-H522 lung it was 0.411 µg/mL; with HOP-62 NSCLC it was 4.31 µg/mL. The TGI with SF-268 CNS came to 9.58 µg/mL; with DU-145 prostate it was 7.11 µg/mL; in the experiment on A498 renal, 11.3 µg/mL; in the experiment on ACHN renal, 2.38 µg/mL; in the experiment with UACC-62 melanoma, 6.02 µg/mL; in the experiment with PC-3 prostate it was 8.7 µg/mL. Moreover, the TGI in the experiment with MCF7 breast was found to be 10.1 µg/mL; with SW-620 colon, 6.15 µg/mL; with NCI-H522 lung, 0.957 µg/mL; with HOP-62 NSCLC, 8.45 µg/mL.
